Test results published in ChEMBL document CHEMBL1201862, “PubChem BioAssay data set” (2004).
Active and inactive are the calls of the source. Rule as the data show it: active = IC50 of 10 µM or less and inactive = more.

Target: T1, 1-phosphatidylinositol 4,5-bisphosphate phosphodiesterase gamma-1 (Homo sapiens, UniProt P19174)
T1 sequence (P19174 whole entry): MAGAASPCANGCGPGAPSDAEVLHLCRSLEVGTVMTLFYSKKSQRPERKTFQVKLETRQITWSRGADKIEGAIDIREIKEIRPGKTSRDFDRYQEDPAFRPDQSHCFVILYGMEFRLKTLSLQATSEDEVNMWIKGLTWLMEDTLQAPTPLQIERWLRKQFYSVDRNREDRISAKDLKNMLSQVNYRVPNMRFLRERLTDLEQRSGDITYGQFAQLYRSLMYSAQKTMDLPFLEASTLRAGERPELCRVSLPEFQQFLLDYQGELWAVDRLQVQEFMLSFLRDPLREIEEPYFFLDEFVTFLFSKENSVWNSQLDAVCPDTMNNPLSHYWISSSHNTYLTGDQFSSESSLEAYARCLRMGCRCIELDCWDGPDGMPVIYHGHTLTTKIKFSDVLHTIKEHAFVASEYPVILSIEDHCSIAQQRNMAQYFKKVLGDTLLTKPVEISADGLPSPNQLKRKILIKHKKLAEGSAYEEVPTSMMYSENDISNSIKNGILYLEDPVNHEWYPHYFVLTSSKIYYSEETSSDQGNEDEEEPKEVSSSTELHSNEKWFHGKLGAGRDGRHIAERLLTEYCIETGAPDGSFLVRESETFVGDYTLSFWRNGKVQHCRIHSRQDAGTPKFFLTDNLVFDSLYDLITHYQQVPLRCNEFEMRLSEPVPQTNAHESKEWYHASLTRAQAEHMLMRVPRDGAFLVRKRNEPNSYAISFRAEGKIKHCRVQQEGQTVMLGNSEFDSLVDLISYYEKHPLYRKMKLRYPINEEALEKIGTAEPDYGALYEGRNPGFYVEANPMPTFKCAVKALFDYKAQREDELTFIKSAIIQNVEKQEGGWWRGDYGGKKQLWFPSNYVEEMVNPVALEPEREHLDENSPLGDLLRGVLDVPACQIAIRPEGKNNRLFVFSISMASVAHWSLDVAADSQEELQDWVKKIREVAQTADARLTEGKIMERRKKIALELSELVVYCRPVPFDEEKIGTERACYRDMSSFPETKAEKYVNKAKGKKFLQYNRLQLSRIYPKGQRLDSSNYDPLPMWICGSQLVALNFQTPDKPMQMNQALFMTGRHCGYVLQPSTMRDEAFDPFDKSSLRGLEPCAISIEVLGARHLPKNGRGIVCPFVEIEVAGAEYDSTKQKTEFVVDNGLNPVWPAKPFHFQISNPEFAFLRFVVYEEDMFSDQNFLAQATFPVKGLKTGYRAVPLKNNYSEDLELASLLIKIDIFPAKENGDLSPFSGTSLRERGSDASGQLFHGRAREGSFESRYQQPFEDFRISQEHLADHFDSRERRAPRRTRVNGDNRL
Assay: Counterscreen for inhibitors of phospholipase C isozymes (PLC-B3): Fluorescence-based biochemical high throughput dose response assay to identify inhibitors of phospholipase C isozymes (PLC-gamma1).

Q: With `O=c1c(O)cccc2cc(O)c(O)c(O)c12` [PURPUROGALLIN] as the molecule, how does the IC50 read?
A: 20.9 µM (inactive)
